1 compound from patent publication US20060183119A1, “Method for determining predisposition to a physiological reaction in a patient” (UNIVERSITE LAVAL, priority 2002, published 2006) can be followed below.

Like-named read-outs stand apart in the source and are kept apart here.

The target of one series is T1, human UGT1A9*3 (Homo sapiens, UniProt O60656, M33T).
T1 sequence (O60656 26-530 M33T): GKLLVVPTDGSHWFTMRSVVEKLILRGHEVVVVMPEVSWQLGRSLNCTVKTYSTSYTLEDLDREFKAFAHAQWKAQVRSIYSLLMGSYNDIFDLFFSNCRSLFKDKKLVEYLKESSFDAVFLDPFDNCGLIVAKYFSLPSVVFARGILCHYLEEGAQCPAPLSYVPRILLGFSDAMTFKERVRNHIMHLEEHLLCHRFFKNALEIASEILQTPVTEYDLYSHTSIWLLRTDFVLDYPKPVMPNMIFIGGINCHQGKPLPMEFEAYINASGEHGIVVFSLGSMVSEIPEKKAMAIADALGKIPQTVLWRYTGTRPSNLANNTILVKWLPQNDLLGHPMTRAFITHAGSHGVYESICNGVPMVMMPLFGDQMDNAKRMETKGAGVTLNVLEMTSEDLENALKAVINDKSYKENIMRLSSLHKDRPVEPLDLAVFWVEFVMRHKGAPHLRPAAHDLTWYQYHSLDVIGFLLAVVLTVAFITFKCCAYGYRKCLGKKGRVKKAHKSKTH
The series can be described thus: Glucuronidation by microsomes of HEK-293 cells stably expressing UGT1A9*3. As to the method:
Microsomal fractions from HEK-293 cells stably expressing human UGT1A9*1, UGT1A9*2 and UGT1A9*3 were used in enzymatic assays. Reactions (100 μl volume) contained 50 mM Tris-HCl, pH 7.3, 10 mM MgCl2, 100 μg/mL phosphatidylcholine, 1 mM UDP-glucuronic acid, 40 to 60 μg of membrane protein. […] Human liver microsome were incubated in the same condition for control. Reaction was stopped by the addition of 200 μL MeOH+1% HCl 2N, followed by centrifugation at 14000 rpm for 10 minutes. Supernatant was filtered through a 0.22 μm filter and 100 μL of water was added. For SN-38 and SN-38-glucuronide detection, 10 μL samples were injected on a liquid chromatographic system coupled to a fluorescence detector. Time-course experiments were realized to determine the linearity of the glucuronidation reaction.
A liquid chromatographic method was developed to quantify SN-38 glucuronidation of UGT cell line-derived microsomes and human liver microsomes. Samples were analyzed using high performance liquid chromatography (Alliance 2695, Waters, Milford, Mass.). […] At a constant flow rate (0.7 ml/min), a linear gradient from 20 to 65% B was run over 3 min, held 0.8 min and a second gradient until 95% of B was run over 2 min and then re-equilibrated to 20% B over 2 min. The effluent from the HPLC system (Alliance 2695) was connected directly to a fluorescence detector (Waters, Milford, Mass.) using an excitation wavelength of […] and an emission of 460 nm. […] Determination of the glucuronidation rates obtained with other substrates was performed as currently known in the art.
Microsomal fractions from HEK293 (40 to 60 μg) were added to a reaction mixture (100 μL) containing 50 mM Tris-HCl, pH 7.3, 10 mM MgCl2, 100 μg/mL phosphatidylcholine and 2 mM UDP-glucuronic acid. […] Commercially available human liver microsomes (Human Cell Culture Center Inc., Laurel, Md.) were incubated in the same conditions for all experiments. Time-course experiments were performed to determine the linearity of the glucuronidation reaction. For the determination of Vmax and Km. HEK293 cells stably expressing UGT1A9 enzymes were incubated in the presence of various concentrations of SN-38 ranging from 0.1 to 200 μM and incubated for 30 min as described above whereas UGT1A7 membranes preparations were incubated for 3 hours. […] Reactions with SN-38 were stopped by the addition of 200 μL MeOH+1% HCl 2N, followed by centrifugation at 14000×g for 10 minutes. The supernatants were filtered through a 0.22 μm membrane and 100 μL of water was added to the filtrate. For the detection of SN-38 and its glucuronide (SN-38G), 10 μL samples were injected in a liquid chromatographic system (HPLC) coupled to fluorescence detector as described below.
A HPLC method was developed to quantify the rates of SN-38 glucuronidation from the various microsomal fractions under study. The HPLC system used was an Alliance 2695 (Waters, Milford, Mass.) equipped with a 50×3.2 mm Colombus C18 column (Phenomenex, Torrance, Calif.). […] Then a second gradient ranging from 65% to 95% solvent B was generated during the following 2 min. Finally, the column was re-equilibrated to 20% solvent B for 2 min. The column was connected to a fluorescence detector model 474 (Waters, Milford, Mass.) and the molecules were excited at a wavelength of 370 nm and an emission of 425 nm.

Another series concerns the target T2, UGT1A7*8 (Homo sapiens, UniProt Q9HAW7, E139D/N129K/R131K/W208R).
T2 construct: expressed in transfected cells
T2 sequence (Q9HAW7 26-530 N129K/R131K/E139D/W208R): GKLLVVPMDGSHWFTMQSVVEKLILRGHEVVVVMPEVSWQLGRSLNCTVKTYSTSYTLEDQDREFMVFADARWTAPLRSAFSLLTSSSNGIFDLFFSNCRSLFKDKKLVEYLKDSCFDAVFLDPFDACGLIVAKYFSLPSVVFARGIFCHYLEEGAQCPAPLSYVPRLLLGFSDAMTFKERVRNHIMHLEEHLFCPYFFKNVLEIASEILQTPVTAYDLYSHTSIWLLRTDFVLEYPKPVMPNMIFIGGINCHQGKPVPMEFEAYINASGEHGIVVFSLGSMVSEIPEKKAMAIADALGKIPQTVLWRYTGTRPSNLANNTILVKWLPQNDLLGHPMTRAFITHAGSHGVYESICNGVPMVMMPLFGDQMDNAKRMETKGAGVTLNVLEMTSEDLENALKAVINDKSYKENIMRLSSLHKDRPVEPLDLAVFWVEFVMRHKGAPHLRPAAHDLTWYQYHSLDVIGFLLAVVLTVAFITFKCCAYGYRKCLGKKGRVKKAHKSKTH
The series can be described thus: SN-38 glucuronidation by microsomes of HEK293 cells expressing UGT1A7*8. The format is in vitro ADME. Also on record: key to Function (SN-38G formation versus *1 allele): High: no significant difference in activity compared to *1 allele.; Low: significantly lower SN-38G formation versus *1 allele. How it is done: Western blot analyses of UGT1A7 and UGT1A9 variants expressed in HEK293 cells were performed on microsomal proteins (10 μg) separated on a 10% SDS-polyacrylamide gel. After transferring the proteins, the membranes were probed with an anti-UGT1A RC-71 polyclonal antibody and with an anti-calnexin antibody. The relative levels of UGT1A9 (a) and UGT1A7 proteins (b) were determined by semi-quantitative densitometric analysis of the Enhanced chemiluminescence (ECL) image. The in vitro SN-38 activity was assessed using microsomal fractions prepared from HEK293 cells expressing the *1 and variant UGT1A9 (c) and UGT1A7 (d) alleles and incubated with 5 μM of SN-38 as described in Materials and Methods.
For the determination of Vmax and Km.

The mark [1] stands for this setting: threonine at position 33, versus UGT1A9*1.

Usually Km stands for the concentration of substrate that gives half-maximal velocity. With `CCc1c2c(nc3ccc(O)cc13)-c1cc3c(c(=O)n1C2)COC(=O)[C@]3(O)CC` [SN-38, 7-ethyl-10-hydroxycamptothecin], the “residual activity compared to the wild type enzyme (SN-38G formation)” value on human UGT1A9*3 (5 μM of SN-38) is 3.8%. The “Vmax values lower for UGT1A9*3 compared with UGT1A9*1” value on human UGT1A9*3 (SN-38 glucuronidation) is reported as “about 26 times”. In addition, the Vmax was 11.89±2.61 pmol/min/mg protein at human UGT1A9*3 (SN-38 glucuronidation, 0.1 to 200 μM, mean±SD) and 15.50 ± 8.40 at human UGT1A9*3 (SN-38 glucuronidation, Table 5). Moreover, the Michaelis-Menten constant (Km) at human UGT1A9*3 (SN-38 glucuronidation, Table 5) was 3.21 ± 0.95 µM; at human UGT1A9*3 (read-out: Apparent Km, SN-38 glucuronidation, 0.1 to 200 μM, mean±SD, Lineweaver-Burk), 3.21 ± 0.95 µM. Further, the “SN-38 glucuronidating activity of the allele (in words)” value at human UGT1A9*3 (in vitro functional genomic assays) and at UGT1A7*8 was “low” in each case. Further, the “decrease of glucuronidation rate” value at human UGT1A9*3 (setting [1]) is given as “approximately 20 folds”. Further, the “decreased conjugation rate for SN-38” value on human UGT1A9*3 (setting [1]) is 96.3%. Also, at human UGT1A9*3 (versus UGT1A9*1), the “effect of codon 33 variation on affinity of the protein for the substrate (in words)” value is listed as “does not affect significantly”. The “Function (SN-38G formation versus *1 allele)” value at UGT1A7*8 (in vitro experiments) is listed as “Low”. Further, the “lower rates of SN-38G formation compared to UGT1A7*1” value at UGT1A7*8 (range given for *5, *7 and *8 together) is on record as 38-76%.
